Data reported in patent publication US20240245673A1, “Papain-like protease (PLpro) inhibitors” (Pfizer Inc., priority 2022, published 2024).
pIC50: −log10 of the molar value.

Each compound was assayed against SARS-CoV-2 Papain like protease (PLpro) (Severe acute respiratory syndrome coronavirus 2 (2019-nCoV) (SARS-CoV-2), UniProt P0DTD1) (assay: Papain Like Protease (PLpro) biochemical assay with profluorogenic substrate Z-RLRGG-AMC). Details: IC50 (μM), SARS-CoV-2 PLpro 6.25 nM, 25 μM Z-RLRGG-AMC substrate, 60 minute reaction.

Structure (SMILES) | IC50 [µM]
Cc1cnc(N2CC3CCC(C2)N3)cc1C(=O)NC1(c2cc(-c3cnn(C)c3)nc3ccccc23)CC1 [Example 285, 2-(3,8-diazabicyclo[3.2.1]octan-3-yl)-5-methyl-N-(1-(2-(1-methyl-1H-pyrazol-4-yl)quinolin-4-yl)cyclopropyl)isonicotinamide] | 0.003

Same assay, conditions: SARS-CoV-2 PLpro 6.25 nM, 25 μM Z-RLRGG-AMC substrate, 60 minute reaction; read-out: IC50

Structure (SMILES) | pIC50
Cc1cc(COCc2cscn2)ccc1C(=O)NC1(c2cc(-c3cc(C(=O)N(C)C)n[nH]3)cc3ncccc23)CC1 [Example 351, N,N-dimethyl-5-(5-(1-(2-methyl-4-((thiazol-4-ylmethoxy)methyl)benzamido)cyclopropyl)quinolin-7-yl)-1H-pyrazole-3-carboxamide] | > 9.00
Cc1ccc(N2CC3CC2CN3C)cc1C(=O)N[C@H](C)c1cc(-c2cnn(C)c2)nc2ccccc12 (stereo partly drawn) [Example 256, 2-methyl-N-((R)-1-(2-(1-methyl-1H-pyrazol-4-yl)quinolin-4-yl)ethyl)-5-(5-methyl-2,5-diazabicyclo[2.2.1]heptan-2-yl)benzamide] | 7.82
Cc1cc(C(NCc2cscn2)C(F)(F)F)ccc1C(=O)N[C@H](C)c1cc(-c2cnn(C)c2)nc2ccccc12 (stereo partly drawn) [Example 310, 2-methyl-N-((R)-1-(2-(1-methyl-1H-pyrazol-4-yl)quinolin-4-yl)ethyl)-4-(2,2,2-trifluoro-1-((thiazol-4-ylmethyl)amino)ethyl)benzamide] | 8.52
Cc1ccc(CN)cc1C(=O)NC(C)c1cc(-n2ccc(C#N)n2)nc2ccccc12 (centres unmarked) [Example 35, 5-(aminomethyl)-N-(1-(2-(3-cyano-1H-pyrazol-1-yl)quinolin-4-yl)ethyl)-2-methylbenzamide] | 5.83
Cc1ccccc1C(=O)NC(C)c1cc(-c2ccc3ncnn3c2)nc2ccccc12 (centres unmarked) [Example 118, 2-methyl-N-{1-[2-([1,2,4]triazolo[1,5-a]pyridin-6-yl)quinolin-4-yl]ethyl}benzamide] | 5.88
Cc1ccccc1C(=O)NC(C)c1cc(CC#N)nc2ccccc12 (stereo in doubt) [Example 159, N-{(1R)-1-[2-(cyanomethyl)quinolin-4-yl]-ethyl}-2-methylbenzamide] | 5.70
Cc1cc(CNCc2cscn2)ccc1C(=O)N[C@H](C)c1cc(-c2cnn(C)c2)nc2ccccc12 [Example 74, (R)-2-methyl-N-(1-(2-(1-methyl-1H-pyrazol-4-yl)quinolin-4-yl)ethyl)-4-(((thiazol-4-ylmethyl)amino)methyl)benzamide] | 8.10
COC(=O)[C@H]1O[C@@H]1C(=O)NNC(=O)CCc1ccccc1C(=O)N[C@H](C)c1cc(-c2cnn(C)c2)nc2ccccc12 [Example 220, methyl(2S,3S)-3-(2-(3-(2-(((R)-1-(2-(1-methyl-1H-pyrazol-4-yl)quinolin-4-yl)ethyl)carbamoyl)phenyl)propanoyl)hydrazine-1-carbonyl)oxirane-2-carboxylate] | 8.70
Cc1ccc(CN)cc1C(=O)N[C@H](C)c1cc(-c2cc(C(=O)O)c[nH]2)nc2ccccc12 [Example 20, (R)-5-(4-(1-(5-(aminomethyl)-2-methylbenzamido)ethyl)quinolin-2-yl)-1H-pyrrole-3-carboxylic acid] | 7.39
COCC(OCc1cscn1)c1ccc(C(=O)NC2(c3cc(-c4cnn(C)c4)cc4nc(C)ccc34)CC2)c(C)c1 (centres unmarked) [Example 353, 4-(2-methoxy-1-(thiazol-4-ylmethoxy)ethyl)-2-methyl-N-(1-(2-methyl-7-(1-methyl-1H-pyrazol-4-yl)quinolin-5-yl)cyclopropyl)benzamide] | > 9.00
Cc1cc(COCc2cscn2)ccc1C(=O)NC1(c2cc(-c3cnn(CC(N)=O)c3)nc3ccccc23)CC1 [Example 352, N-(1-(2-(1-(2-amino-2-oxoethyl)-1H-pyrazol-4-yl)quinolin-4-yl)cyclopropyl)-2-methyl-4-((thiazol-4-ylmethoxy)methyl)benzamide] | > 9.00
Cc1ccccc1C(=O)NC(C)c1cc(NCC2CCS(=O)(=O)CC2)nc2ccccc12 (centres unmarked) [Example 144, N-(1-(2-(((1,1-dioxidotetrahydro-2H-thiopyran-4-yl)methyl)-amino)quinolin-4-yl)ethyl)-2-methylbenzamide] | 5.95
COC(=O)c1c[nH]c(-c2cc(C(C)NC(=O)c3ccccc3C)c3ccccc3n2)c1 (centres unmarked) [Example 128, methyl 5-{4-[1-(2-methylbenzamido)ethyl]quinolin-2-yl}-1H-pyrrole-3-carboxylate] | 6.79
COC[C@@H](OCc1cscn1)c1ccc(C(=O)NC2(c3cc(-c4cc(C(=O)N(C)C)n[nH]4)nc4ccccc34)CC2)c(C)c1 (single isomer, unassigned) [Example 336] | > 9.00
Cc1cc(CNCc2cscn2)ccc1C(=O)NC(C)c1cc(-c2cnn(C)c2)cc2ccccc12 (centres unmarked) [Example 7, 2-methyl-N-(1-(3-(1-methyl-1H-pyrazol-4-yl)naphthalen-1-yl)ethyl)-4-(((thiazol-4-ylmethyl)amino)methyl)benzamide] | 7.89
Cc1ccccc1C(=O)NC(C)c1cc(-c2ccc3c(c2)nnn3C)nc2ccccc12 (centres unmarked) [Example 134] | 6.36
Cc1ccc(N2CCN(C)CC2)cc1C(=O)NC(C)c1cc(-c2cc(C(=O)O)c[nH]2)cc2ccccc12 (centres unmarked) [Example 216, 5-(4-(1-(2-methyl-5-(4-methylpiperazin-1-yl)benzamido)ethyl)naphthalen-2-yl)-1H-pyrrole-3-carboxylic acid] | 7.92

Structure (SMILES) | pIC50
COC[C@@H](OCc1cscn1)c1ccc(C(=O)NC2(c3cc(-c4cnn(C)c4)cc4ncccc34)CC2)c(C)c1 (single isomer, unassigned) [Example 334] | > 9.00
Cc1cc(CN(Cc2cscn2)S(C)(=O)=O)ccc1C(=O)N[C@H](C)c1cc(-c2cnn(C)c2)nc2ccccc12 [Example 268, (R)-2-methyl-N-(1-(2-(1-methyl-1H-pyrazol-4-yl)quinolin-4-yl)ethyl)-4-((N-(thiazol-4-ylmethyl)methylsulfonamido)methyl)benzamide] | 6.86
COC[C@H](OCc1cocn1)c1ccc(C(=O)NC2(c3cc(-c4cnn(C)c4)cc4ncccc34)CC2)c(C)c1 (single isomer, unassigned) [Example 356] | 8.70
Cc1cc(CNCc2ncc[nH]2)ccc1C(=O)NC(C)c1cc(-c2cnn(C)c2)cc2ccccc12 (centres unmarked) [Example 6, 4-((((1H-imidazol-2-yl)methyl)amino)methyl)-2-methyl-N-(1-(3-(1-methyl-1H-pyrazol-4-yl)naphthalen-1-yl)ethyl)benzamide] | 7.72
Cc1ccc(CN)cc1C(=O)NC(C)c1cc(-n2cnnc2C(N)=O)nc2ccccc12 (centres unmarked) [Example 33, 4-(4-(1-(5-(aminomethyl)-2-methylbenzamido)ethyl)quinolin-2-yl)-4H-1,2,4-triazole-3-carboxamide] | 5.87
Cc1cc(COCc2cscn2)ccc1C(=O)NC1(c2cc(-c3cc(C(N)=O)n[nH]3)nc3ccccc23)CC1 [Example 349, 5-(4-(1-(2-methyl-4-((thiazol-4-ylmethoxy)methyl)benzamido)cyclopropyl)quinolin-2-yl)-1H-pyrazole-3-carboxamide] | > 9.00
CCn1cc(-c2cc(C(C)NC(=O)c3ccccc3C)c3ccccc3n2)c(C)n1 (centres unmarked) [Example 115, N-{1-[2-(1-ethyl-3-methyl-1H-pyrazol-4-yl)quinolin-4-yl]ethyl}-2-methylbenzamide] | 5.97
Cc1ccc(NC(=O)[C@H]2CCCCN2)cc1C(=O)N[C@H](C)c1cc(N)nc2ccccc12 (single isomer, unassigned) [Example 28, (R)—N-(3-(((R*)-1-(2-aminoquinolin-4-yl)ethyl)carbamoyl)-4-methylphenyl) piperidine-2-carboxamide] | 5.26
Cc1ccccc1C(=O)N[C@H](C)c1cc(-c2ccnn2C)nc2ccccc12 [Example 50, (R)-2-methyl-N-(1-(2-(1-methyl-1H-pyrazol-5-yl)quinolin-4-yl)ethyl)benzamide] | 6.31
Cc1ccc(N2CCNCC2)cc1C(=O)NC(C)c1cc(-c2cnn(C)c2)cc2ccccc12 (centres unmarked) [Example 59, 2-methyl-N-(1-(3-(1-methyl-1H-pyrazol-4-yl)naphthalen-1-yl)ethyl)-5-(piperazin-1-yl)benzamide] | 7.60
CC(C)OC(=O)/C=C/C(=O)NNC(=O)CCc1ccccc1C(=O)N[C@H](C)c1cc(-c2cnn(C)c2)nc2ccccc12 [Example 233, isopropyl (R,E)-4-(2-(3-(2-((1-(2-(1-methyl-1H-pyrazol-4-yl)quinolin-4-yl)ethyl)carbamoyl)phenyl)propanoyl)hydrazineyl)-4-oxobut-2-enoate] | 8.52
Cc1ccc(C(N)=O)cc1C(=O)NC(C)c1cc(-n2ccnn2)cc2ccccc12 (centres unmarked) [Example 1, N^1-(1-(3-(1H-1,2,3-triazol-1-yl)naphthalen-1-yl)ethyl)-6-methylisophthalamide] | 5.75
Cc1cc(C(=O)NC(C)c2ncc[nH]2)ccc1C(=O)N[C@H](C)c1cc(-c2cnn(C)c2)nc2ccccc12 (some centres unmarked) [Example 246] | 7.46
Cc1cc(COCc2cscn2)ccc1C(=O)NC1(c2cc(-c3cnn(C)c3)nc3ccccc23)CC1 [Example 323, 2-methyl-N-(1-(2-(1-methyl-1H-pyrazol-4-yl)quinolin-4-yl)cyclopropyl)-4-((thiazol-4-ylmethoxy)methyl)benzamide] | > 9.00
Cc1cc(COCc2ccccn2)ccc1C(=O)NC1(c2cc(-c3cnn(CC(=O)N(C)C)c3)nc3ccccc23)CC1 [Example 366, N-(1-(2-(1-(2-(dimethylamino)-2-oxoethyl)-1H-pyrazol-4-yl)quinolin-4-yl)cyclopropyl)-2-methyl-4-((pyridin-2-ylmethoxy)methyl)benzamide] | > 9.00
CNC(=O)/C=C/C(=O)NNC(=O)CCc1ccccc1C(=O)N[C@H](C)c1cc(-c2cnn(C)c2)nc2ccccc12 [Example 223, (R,E)-N-(1-(2-(1-methyl-1H-pyrazol-4-yl)quinolin-4-yl)ethyl)-2-(3-(2-(4-(methylamino)-4-oxobut-2-enoyl)hydrazineyl)-3-oxopropyl)benzamide] | 7.24
Cc1cc(C(=O)NCc2nccn2C)ccc1C(=O)N[C@H](C)c1cc(-c2cnn(C)c2)nc2ccccc12 [Example 271] | 8.30
